Experimental data: the supplement of paper PMC11061612

How the values were obtained:
[1] = test system: HCC-44 (Lung Adenocarcinoma); assay: Bliss excess, mean over the matrix (fraction); higher = more synergy
Outline: (§1)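 Bliss excess equals the observed combination effect minus the expected value EA + EB − EA·EB, where EA and EB are the effects of each agent alone. Combination Emax is the second-highest inhibition within the matrix. Inhibition was scaled from CellTiter-Glo 2.0 luminescence, with 0 set by vehicle wells and 1 by blank wells, after 72 hours of two-drug dosing of cells plated in 1536-well plates.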

RT4 (Bladder Carcinoma) = assay: as above
Outline: as §1

[2] = test system: HSC-3 (Oral Cavity Carcinoma); assay: as above
Outline: as §1

[3] = test system: PC-14 (Lung Adenocarcinoma); assay: as above
Outline: as §1

[4] = test system: SK-MM-2 (Plasma Cell Myeloma); assay: as above
Outline: as §1

[5] = test system: HCC-44 (Lung Adenocarcinoma); assay: combination Emax (second highest fraction inhibited in the dose matrix, 72 h); higher = more inhibition; extreme values may be limits of the assay
Outline: as §1

SMILES	Bliss excess [1]	Bliss excess (RT4 (Bladder Carcinoma))	Bliss excess [2]	Bliss excess [3]	Bliss excess [4]	combination Emax [5]
NC1(C(=O)N[C@@H](CCO)c2ccc(Cl)cc2)CCN(c2ncnc3[nH]ccc23)CC1 [Capivasertib] + C[C@@H]1COCCN1C2=NC(=NC(=C2)C3(CC3)[S@](=N)(=O)C)C4=C5C=CNC5=NC=C4 [AZD6738] (first compound max 10 µM, 7x7, partner max 10 µM)	-0.0298	-0.022	-0.0346	-0.0355	-0.0164	0.661
NC1(C(=O)N[C@@H](CCO)c2ccc(Cl)cc2)CCN(c2ncnc3[nH]ccc23)CC1 [Capivasertib] + Cn1cnc2c(F)c(Nc3ccc(Br)cc3Cl)c(C(=O)NOCCO)cc21 [Selumetinib] (first compound max 10 µM, 7x7, partner max 10 µM)	0.106	-0.0196	0.0081	0.0938	-0.0293	0.824
COc1nnc2ccc(N3CCC(c4ccc(OCCN5CCN(C)C(=O)[C@H]5C)cc4)CC3)nn12 [AZD5153] + C=CCn1c(=O)c2cnc(Nc3ccc(N4CCN(C)CC4)cc3)nc2n1-c1cccc(C(C)(C)O)n1 [AZD1775] (first compound max 1 µM, partner max 1 µM)	-0.0787	-0.0064	-0.0396	-0.0488	-0.0484	0.63
COc1cc2ncnc(Nc3ccc(F)c(Cl)c3)c2cc1OCCCN1CCOCC1 [Gefitinib] + CC(C)n1c(=O)n(C)c2cnc3cc(F)c(-c4ccc(OCCCN5CCCCC5)nc4)cc3c21 [AZD1390] (first compound max 10 µM, 7x7, partner max 0.3 µM)	-0.0387	-0.176	-0.0649	-0.0565	-0.0267	0.121
NC1(C(=O)N[C@@H](CCO)c2ccc(Cl)cc2)CCN(c2ncnc3[nH]ccc23)CC1 [Capivasertib] + COc1nnc2ccc(N3CCC(c4ccc(OCCN5CCN(C)C(=O)[C@H]5C)cc4)CC3)nn12 [AZD5153] (first compound max 10 µM, 7x7, partner max 1 µM)	-0.0278	-0.0021	0.0078	0.0461	-0.107	0.704
COc1nnc2ccc(N3CCC(c4ccc(OCCN5CCN(C)C(=O)[C@H]5C)cc4)CC3)nn12 [AZD5153] + CCN(CCO)CCCOc1ccc2c(Nc3cc(CC(=O)Nc4cccc(F)c4)[nH]n3)ncnc2c1 [AZD2811] (first compound max 1 µM, 7x7, partner max 1 µM)	-0.0338	-0.0391	-0.0509	-0.0017	-0.0366	0.617
C[C@@H](c1ccc2nccn2c1)n1nnc2ncc(-c3cnn(C)c3)nc21 [Savolitinib] + CC1(C)CCC(CN2CCN(c3ccc(C(=O)NS(=O)(=O)c4ccc(NCC5CCOCC5)c([N+](=O)[O-])c4)c(Oc4cnc5[nH]ccc5c4)c3)CC2)=C(c2ccc(Cl)cc2)C1 [Venetoclax] (first compound max 1 µM, 7x7, partner max 1 µM)	-0.02	-0.055	-0.0383	-0.0276	-0.019	0.148
NC1(C(=O)N[C@@H](CCO)c2ccc(Cl)cc2)CCN(c2ncnc3[nH]ccc23)CC1 [Capivasertib] + CC(C)n1c(=O)n(C)c2cnc3cc(F)c(-c4ccc(OCCCN5CCCCC5)nc4)cc3c21 [AZD1390] (first compound max 10 µM, 7x7, partner max 0.3 µM)	-0.0359	-0.0651	-0.0746	-0.0168	-0.115	0.602
C[C@@H](c1ccc2nccn2c1)n1nnc2ncc(-c3cnn(C)c3)nc21 [Savolitinib] + Cc1c2c(nn1C)CSCc1cc(n(C)n1)CSc1cc(c3ccccc3c1)OCCCc1c(C(=O)O)n(C)c3c-2c(Cl)ccc13 [AZD5991] (first compound max 1 µM, 7x7, partner max 1 µM)	-0.0335	0.0148	-0.018	-0.0134	-0.0395	0.0929
C=CCn1c(=O)c2cnc(Nc3ccc(N4CCN(C)CC4)cc3)nc2n1-c1cccc(C(C)(C)O)n1 [AZD1775] + C1CN(CCC1(C(=O)N[C@@H](CCO)C2=CC=C(C=C2)Cl)N)C3=NC=NC4=C3C=CN4 [Capivasertib] (first compound max 3 µM, partner max 3 µM)	-0.0109	-0.0355	0.0552	-0.018	-0.0629	0.844
Cn1cnc2c(F)c(Nc3ccc(Br)cc3Cl)c(C(=O)NOCCO)cc21 [Selumetinib] + CC(C)n1c(=O)n(C)c2cnc3cc(F)c(-c4ccc(OCCCN5CCCCC5)nc4)cc3c21 [AZD1390] (first compound max 10 µM, 7x7, partner max 0.3 µM)	-0.0225	-0.0267	-0.0424	-0.0015	-0.0084	0.396
Cn1cnc2c(F)c(Nc3ccc(Br)cc3Cl)c(C(=O)NOCCO)cc21 [Selumetinib] + CCN(CCO)CCCOc1ccc2c(Nc3cc(CC(=O)Nc4cccc(F)c4)[nH]n3)ncnc2c1 [AZD2811] (first compound max 10 µM, 7x7, partner max 1 µM)	0.0067	-0.0816	-0.0877	0.0372	-0.0037	0.528
COc1nnc2ccc(N3CCC(c4ccc(OCCN5CCN(C)C(=O)[C@H]5C)cc4)CC3)nn12 [AZD5153] + Cc1c2c(nn1C)CSCc1cc(n(C)n1)CSc1cc(c3ccccc3c1)OCCCc1c(C(=O)O)n(C)c3c-2c(Cl)ccc13 [AZD5991] (first compound max 1 µM, 7x7, partner max 1 µM)	-0.0332	0.0009	-0.0069	-0.0145	-0.0156	0.756
CN(C)CCCOc1ccc(-c2ccc3ncc4c(c3c2)n(C2CCOCC2)c(=O)n4C)cn1 [AZD0156] + O=C(c1cc(Cc2n[nH]c(=O)c3ccccc23)ccc1F)N1CCN(C(=O)C2CC2)CC1 [Olaparib] (first compound max 3 µM, partner max 3 µM)	0.0947	-0.0044	0.132	-0.0009	-0.161	0.456
CC(=O)c1c(C)c2cnc(Nc3ccc(N4CCNCC4)cn3)nc2n(C2CCCC2)c1=O [Palbociclib] + Cc1c2c(nn1C)CSCc1cc(n(C)n1)CSc1cc(c3ccccc3c1)OCCCc1c(C(=O)O)n(C)c3c-2c(Cl)ccc13 [AZD5991] (first compound max 10 µM, 7x7, partner max 1 µM)	-0.0224	-0.0244	-0.0811	-0.0106	0.0033	0.169
COc1nnc2ccc(N3CCC(c4ccc(OCCN5CCN(C)C(=O)[C@H]5C)cc4)CC3)nn12 [AZD5153] + Cn1cnc2c(F)c(Nc3ccc(Br)cc3Cl)c(C(=O)NOCCO)cc21 [Selumetinib] (first compound max 1 µM, 7x7, partner max 10 µM)	0.0636	0.0073	-0.0211	0.007	-0.004	0.728
Cc1c2c(nn1C)CSCc1cc(n(C)n1)CSc1cc(c3ccccc3c1)OCCCc1c(C(=O)O)n(C)c3c-2c(Cl)ccc13 [AZD5991] + C[C@@H]1COCCN1C2=NC(=NC(=C2)C3(CC3)[S@](=N)(=O)C)C4=C5C=CNC5=NC=C4 [AZD6738] (first compound max 1 µM, 7x7, partner max 10 µM)	–	0.0537	0.0094	0.0229	-0.0607	–
CC1(C)CCC(CN2CCN(c3ccc(C(=O)NS(=O)(=O)c4ccc(NCC5CCOCC5)c([N+](=O)[O-])c4)c(Oc4cnc5[nH]ccc5c4)c3)CC2)=C(c2ccc(Cl)cc2)C1 [Venetoclax] + C=CCn1c(=O)c2cnc(Nc3ccc(N4CCN(C)CC4)cc3)nc2n1-c1cccc(C(C)(C)O)n1 [AZD1775] (first compound max 1 µM, partner max 1 µM)	–	0.0364	-0.0216	-0.0027	0.102	–
COc1cc2c(cc1OCCCCCOc1cc3c(cc1OC)C(=O)N1C=C(C)C[C@H]1C=N3)N=C[C@@H]1CC(C)=CN1C2=O [SG3199] + O=C(c1cc(Cc2n[nH]c(=O)c3ccccc23)ccc1F)N1CCN(C(=O)C2CC2)CC1 [Olaparib] (first compound max 0.001 µM, 7x7, partner max 10 µM)	–	-0.0164	-0.0067	-0.0274	-0.0179	–
CC1(C)CCC(CN2CCN(c3ccc(C(=O)NS(=O)(=O)c4ccc(NCC5CCOCC5)c([N+](=O)[O-])c4)c(Oc4cnc5[nH]ccc5c4)c3)CC2)=C(c2ccc(Cl)cc2)C1 [Venetoclax] + Cc1cc2ncnn2cc1Nc1ncc2c(n1)n(C1CCOCC1)c(=O)n2C [AZD7648] (first compound max 1 µM, 7x7, partner max 10 µM)	–	-0.0115	0.0185	-0.0163	0.0145	–
CN(CCO)CC[C@H](CSc1ccccc1)Nc1ccc(S(=O)(=O)NC(=O)c2ccc(N3CCC([C@@H](O)c4ccccc4-c4ccc(Cl)cc4)CC3)cc2)cc1S(=O)(=O)C(F)(F)F [AZD4320] + C[C@@H]1COCCN1C2=NC(=NC(=C2)C3(CC3)[S@](=N)(=O)C)C4=C5C=CNC5=NC=C4 [AZD6738] (first compound max 1 µM, 7x7, partner max 10 µM)	–	0.0064	-0.054	-0.0133	-0.0126	–
Cc1c2c(nn1C)CSCc1cc(n(C)n1)CSc1cc(c3ccccc3c1)OCCCc1c(C(=O)O)n(C)c3c-2c(Cl)ccc13 [AZD5991] + C=CCn1c(=O)c2cnc(Nc3ccc(N4CCN(C)CC4)cc3)nc2n1-c1cccc(C(C)(C)O)n1 [AZD1775] (first compound max 1 µM, partner max 1 µM)	–	0.0351	0.0184	-0.001	-0.112	–
CN(CCO)CC[C@H](CSc1ccccc1)Nc1ccc(S(=O)(=O)NC(=O)c2ccc(N3CCC([C@@H](O)c4ccccc4-c4ccc(Cl)cc4)CC3)cc2)cc1S(=O)(=O)C(F)(F)F [AZD4320] + Cn1cnc2c(F)c(Nc3ccc(Br)cc3Cl)c(C(=O)NOCCO)cc21 [Selumetinib] (first compound max 1 µM, 7x7, partner max 3 µM)	–	0.112	0.0228	0.0379	0.0514	–
CCc1c2c(nc3ccc(O)cc13)-c1cc3c(c(=O)n1C2)COC(=O)[C@]3(O)CC [SN-38] + CN(C)CCCOc1ccc(-c2ccc3ncc4c(c3c2)n(C2CCOCC2)c(=O)n4C)cn1 [AZD0156] (first compound max 0.3 µM, 7x7, partner max 1 µM)	–	-0.0184	-0.0063	0.0407	0.0076	–
COc1cccc(OCCCN)c1-c1cc(Nc2cnc(C#N)cn2)n[nH]1 [Prexasertib] + CN(C)CCCOc1ccc(-c2ccc3ncc4c(c3c2)n(C2CCOCC2)c(=O)n4C)cn1 [AZD0156] (first compound max 1 µM, 7x7, partner max 1 µM)	–	0.0482	-0.0322	-0.0284	-0.0392	–
